# Experimental data from patent US11458198B2, “HPV epitopes targeted by T cells infiltrating cervical malignancies for use in vaccines” (Academisch Ziekenhuis Leiden H.O.D.N. LUMC, priority 2007, dated 2022).
# What was measured:
# Type in all cases: cell-based, human
# [1] = tested on: HPV-specific T cell cultures; assay: Intracellular cytokine staining for IFNγ, type of T cell responding; conditions: TIL culture of C265
# Description: (§1) Enumeration of IFNγ producing T cells as measured by intracellular cytokine staining was performed as described earlier (de Jong et al. 2005). Briefly, APC were loaded with cognate peptide or recombinant protein and incubated with T cell cultures. After 1 hour of incubation 10 μg/ml Brefeldin A (Sigma) was added and incubated overnight. Hereafter the cells were fixed with 4% paraformaldehyde (Sigma) and permeabilized with 0.1% Saponin. The samples were subsequently stained with CD4-APC, CD8-PerCP and IFNγ-PE and analyzed by flow cytometry. The minimal peptide recognized by CD8 T cells was analysed by IFNγ ELISPOT (van der Burg et al. 2001, Welters et al. 2006, de Jong et al. 2002). CD8 T cell lines were seeded in triplicate wells at a density of 2×104 on a Multiscreen 96-well plate (Millipore, Etten-Leur, The Netherlands) coated with an IFNγ catch antibody (Mabtech. Nacha, Sweden). The microcultures were stimulated with 5 μg/ml 10-mer peptides and incubated overnight. Analysis of HLA restriction of CD8 T cells was performed using 5 μg/ml 10-mer peptide pulsed PBMC or B-LCL co-cultured with equal numbers of T cells. IFNγ specific spots were stained according to the instructions of the manufacturer (Mabtech). The number of spots was analysed on a fully automated computer assisted video imaging system (BIOSYS).
# [2] = tested on: skin test infiltrating lymphocytes; assay: Intracellular cytokine staining of T cell cultures from positive skin reaction sites
# Description: Skin tests, based on Delayed Type Hypersensitivity reactions (DTH), can be used as a sensitive and simple method for in vivo measurement of HPV-specific cellular immune responses (Hopfl, 2000; Hopfl, 1991). The skin test preparations consisted of 8 pools of long clinical-grade synthetic peptides spanning the whole HPV 16 E6 and E7 protein and the most immunogenic regions of HPV 16 E2 protein (de Jong, 2004). These clinical grade peptides were produced in the interdivisional GMP-Facility of the LUMC. Each pool of the skin test consisted of 2 or 3 synthetic peptides, indicated by the first and last amino acid of the region in the protein covered by the peptides. Pool 1: E231-60, E246-75, Pool 2: E2301-330, E2316-345, Pool 3: E61-31, E619-50 (SEQ ID NO: 28), Pool 4: E641-65 (SEQ ID NO: 29), E655-80 (SEQ ID NO: 30), E671-95 (SEQ ID NO: 31), Pool 5: E685-109 (SEQ ID NO: 32), E691-122 (SEQ ID NO: 33), Pool 6: E6109-140 (SEQ ID NO: 34), E6127-158 (SEQ ID NO: 35), Pool 7: E71-35 (SEQ ID NO: 36), E722-56 (SEQ ID NO: 37), Pool 8: E743-77 (SEQ ID NO: 38), E764-98 (SEQ ID NO: 39). Pool 3 comprises Seq ID 5, 22 and 23. Pool 4 comprises Seq IDs 7-9. Pool 5 comprises Seq IDs 11 and 12. Pool 6 comprises Seq IDs 13, 14, 24 and 25. Pool 7 comprises Seq ID 15 and 26. Pool 8 comprises Seq IDs 16 and 17. Per peptide pool 0.05 ml of 0.2 mg/ml peptides in 16% DMSO in 20 mM isotonic phosphate buffer (10 μg/peptide) was injected intracutaneously. The pools of peptides and a negative control (dissolvent only) were injected separately at individual skin test sites of the upper arm. Skin test sites were inspected at least three times, at 72 hours and 7 days after injection (Hopfl) of the peptides and at 3 weeks following the first report of a very late skin reaction in one of the first healthy subjects. […]
# The specificity and character of the T cell cultures derived from positive skin reaction sites was tested by ICS as reported previously (de Jong, 2005). […] After incubation at 4° C., the cells were washed, fixed with 1% paraformaldehyde and analyzed by flow cytrometry (FACSscan, BD Biosciences)
# HPV-specific T cells = assay: Fine specificity with single peptides (proliferation and IFNγ production); conditions: patients C265, C334, C284, C228 respectively
# Description: T cell cultures (25,000-50,000 cells/well) were tested on pulsed autologous monocytes or irradiated autologous EBVs for the recognition of HPV16 and 18 E6 and E7 peptides (5 μg/ml) and protein (10 μg/ml) in triplicate in a 3 day proliferation assay. After 48 hours supernatant was harvested and stored at −20° C. for cytokine analysis. During the last 16 hours of culture 0.5 μCi/well [^3H]thymidine was added to measure proliferation (van der Burg et al. 2001). Antigen specific IFNγ production was measured by ELISA as described earlier (van der Burg et al. 1999).
# Following the evaluation of HPV-specific reactivity, the 19 responding T cell lines were expanded by stimulation with cognate peptide, cytokine mix and feeder cells. Fifteen of these HPV-specific cultures could be sufficiently expanded for further analysis. The fine specificity of the HPV-specific T cells was determined in short-term stimulation assays using single peptides. Five cultures recognized 2 or more distinct peptides, whereas the other 10 cultures recognized a single peptide (FIG. 1B, Table 1). To assess the type of T cell that responded to antigenic stimulation, the T cell cultures were stimulated with their cognate peptide and protein antigens and the response was analyzed by intra-cellular IFNγ staining (FIG. 2). The majority of the TIL cultures contained HPV-specific CD4+ infiltrating T lymphocytes (n=13 patients, 13 different peptides recognized), whereas HPV-specific CD8^+ T cells infiltrating lymphocytes were found in 6 cultures. In 9 of the HPV-specific T cell lines only a CD4^+ T cell response was detected, in 4 T cell lines both CD4^+ T cells and CD8^+ T cells reacted and in 2 T cell lines only a CD8 T cells response was detected (Table 1, FIG. 2).
# [3] = tested on: HPV-specific CD4+ and CD8+ T cells; assay: HLA restriction and minimal epitope (blocking antibodies, partially HLA matched APC, IFNγ ELISPOT); conditions: HLA-A*0201-restricted tumor-infiltrating CD8+ T cells
# Description: MHC class II blocking experiments were performed as reported before using murine monoclonal antibodies against HLA-DR (B8.11.2), HLA-DQ (SPV.L3) and HLA-DP (B7/21) (van der Burg et al. 1999). Peptide-pulsed APC were incubated with anti-MHC class II antibodies for 2 hours prior to the addition of T cells.
# as §1, with “Analysis of HLA restriction of CD8 T cells was performed using 5 μg/ml 10-mer peptide pulsed PBMC or B-LCL co-cultured with equal numbers of T cells. IFNγ specific spots were stained according to the instructions of the manufacturer (Mabtech).” left out, “(BIOSYS). […]” for “(BIOSYS).”
substance,measurement,setting,value
"HPV16 E6 41-62: 22-mer peptide, amino acids 41-62 of HPV16 E6 (KQQLLRREVYDFAFRDLCIVYR; UniProt P03126 41-62, looked up, fragment)","type of T cell responding, intracellular IFNγ (FIG. 2)",[1],CD4^+ and CD8^+ T cell response
"HPV16 E6109-140: HPV16 E6 amino acids 109-140, clinical-grade long peptide (RCINCQKPLCPEEKQRHLDKKQRFHNIRGRWT; Human papillomavirus type 16)",response of CD8+ T cells isolated from the biopsy,"[2]; HD2, biopsy of pool 6",responded
"HPV16E7 peptide 71-92: 22-mer peptide, amino acids 71-92 of HPV16 E7 (STHVDIRTLEDLLMGTLGIVCP; UniProt P03129 71-92, looked up, fragment)","response of bulk culture to single peptide, proliferation and IFNγ production (FIG. 1B)",HPV-specific T cells,responded
HPV16E6.37-68: amino acids 37-68 of HPV16 E6 protein (CVYCKQQLLRREVYDFAFRDLCIVYRDGNPYA; Human papillomavirus type 16),response of CD8+ T cells isolated from the biopsy,[2]; subjects HD15 and HD16,responded
same,"response of bulk culture to single peptide, proliferation and IFNγ production (FIG. 1B)",HPV-specific T cells,responded
HPV18E7.21-42: amino acids 21-42 of HPV18 E7 protein (IPVDLLCHEQLSDSEEENDEID; Human papillomavirus type 18),"response of bulk culture to single peptide, proliferation and IFNγ production (FIG. 1B)",HPV-specific T cells,responded
HPV16E7.11-19: amino acids 11-19 of HPV16 E7 protein (IVLHLEPQN; Human papillomavirus type 16),reactivity of CD8+ T cells compared with HPV16 E7.11-20,[3],stronger reactivity
"E6127-158: HPV16 E6 amino acids 127-158, clinical-grade long peptide (DKKQRFHNIRGRWTGRCMSCCRSSRTRRETQL; Human papillomavirus type 16)",response of CD8+ T cells isolated from the biopsy,"[2]; HD2, biopsy of pool 6",responded
"HPV16E6 peptide 137-158: 22-mer peptide, amino acids 137-158 of HPV16 E6 (GRWTGRCMSCCRSSRTRRETQL; UniProt P03126 137-158, looked up, fragment)","response of bulk culture to single peptide, proliferation and IFNγ production (FIG. 1B)",HPV-specific T cells,responded
